18 compounds from PubChem BioAssay AID248 (DTP/NCI, 2004) can be followed below.

The structures appear in SMILES notation. Several values for one entry are separate records, joined by “and”; a condition that tells them apart may be missing. Equal values may be shown once. Inconclusive results and toxic doses are left out.

The assay has as its system L1210 leukemia ip in BDF1 mice, survival T/C. Nature of the assay: NCI In Vivo Anticancer Drug Screen. Data for tumor model L1210 Leukemia (intraperitoneal) in B6D2F1 (BDF1) mice. Conditions: endpoint: mean survival time, higher = longer survival. In a few lines:
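Transplanted-tumor mice were given test agent; controls received vehicle only. Survival readings from the two groups were divided (treated over control).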

Where [1] appears, read: dose: 100.0 mg/kg/injection, schedule: Q01DX001 (ip), vehicle: other.
[2] abbreviates: dose: 200.0 mg/kg/injection, schedule: Q01DX001 (ip), vehicle: other.
Setting [3] is: dose: 400.0 mg/kg/injection, schedule: Q01DX001 (ip), vehicle: other.
The mark [4] stands for this setting: dose: 100.0 mg/kg/injection, schedule: Q04DX003 (ip), vehicle: saline with Tween-80.
Setting [5] is: dose: 100.0 mg/kg/injection, schedule: Q01DX009 (ip), vehicle: Klucel (hydroxypropylcellulose) (HPC).
The mark [6] stands for this setting: dose: 200.0 mg/kg/injection, schedule: Q01DX009 (ip), vehicle: Klucel (hydroxypropylcellulose) (HPC).
Where [7] appears, read: dose: 400.0 mg/kg/injection, schedule: Q01DX009 (ip), vehicle: Klucel (hydroxypropylcellulose) (HPC).
[8] abbreviates: dose: 100.0 mg/kg/injection, schedule: Q04DX002 (ip), vehicle: Klucel (hydroxypropylcellulose) (HPC).
The mark [9] stands for this setting: dose: 200.0 mg/kg/injection, schedule: Q04DX002 (ip), vehicle: Klucel (hydroxypropylcellulose) (HPC).
The mark [10] stands for this setting: dose: 400.0 mg/kg/injection, schedule: Q04DX002 (ip), vehicle: Klucel (hydroxypropylcellulose) (HPC).
Where [11] appears, read: dose: 100.0 mg/kg/injection, schedule: Q01DX001 (ip), vehicle: saline.
Where [12] appears, read: dose: 200.0 mg/kg/injection, schedule: Q01DX001 (ip), vehicle: saline.
Where [13] appears, read: dose: 400.0 mg/kg/injection, schedule: Q01DX001 (ip), vehicle: saline.
[14] abbreviates: dose: 100.0 mg/kg/injection, schedule: Q01DX009 (ip), vehicle: saline with Tween-80.
Where [15] appears, read: dose: 200.0 mg/kg/injection, schedule: Q01DX009 (ip), vehicle: saline with Tween-80.
Setting [16] is: dose: 400.0 mg/kg/injection, schedule: Q01DX009 (ip), vehicle: saline with Tween-80.

For `S=c1cccn[nH]1`, the T/C (dose: 12.5 mg/kg/injection, schedule: Q01DX009 (ip), vehicle: other) was 459 % of control; the T/C (dose: 25.0 mg/kg/injection, schedule: Q01DX009 (ip), vehicle: other) was 459 % of control; the T/C (dose: 50.0 mg/kg/injection, schedule: Q01DX009 (ip), vehicle: other) was 406 % of control; the T/C (dose: 59.0 mg/kg/injection, schedule: Q01DX009 (ip), vehicle: other) is 93 % of control and 101 % of control; the T/C (dose: 89.0 mg/kg/injection, schedule: Q01DX009 (ip), vehicle: other) was 96 % of control and 99 % of control; the T/C (dose: 100.0 mg/kg/injection, schedule: Q01DX009 (ip), vehicle: other) was 341 % of control. Also, the T/C by setting is: (dose: 133.0 mg/kg/injection, schedule: Q01DX009 (ip), vehicle: other) 94 % of control and 100 % of control; (dose: 300.0 mg/kg/injection, schedule: Q01DX009 (ip), vehicle: other) 96 % of control and 90 % of control.
As for `CN(C)/N=N/c1nc[nH]c1C(=O)N/N=C/c1ccc(N(CCCl)CCCl)cc1`, the T/C reads like this: under setting [1], 100 % of control; under setting [2], 104 % of control; under setting [3], 98 % of control.
As to `O=C(COc1ccc(Cl)c(Cl)c1)NCc1ccc[n+](Cc2ccc(S(=O)(=O)F)cc2Cl)c1`, the T/C is, setting by setting: (dose: 25.0 mg/kg/injection, schedule: Q04DX003 (ip), vehicle: saline with Tween-80) 109 % of control; (dose: 50.0 mg/kg/injection, schedule: Q04DX003 (ip), vehicle: saline with Tween-80) 101 % of control; under setting [4], 86 % of control.
In the case of `O=C(Nc1ccccc1F)NC(CO)(CO)CO`, the T/C by setting is: under setting [5], 97 % of control; under setting [6], 98 % of control; under setting [7], 95 % of control.
On to `NC(=O)C(O)(C(F)(F)F)C(F)(F)F`, for which the T/C reads like this: (dose: 1.25 mg/kg/injection, schedule: Q01DX009 (ip), vehicle: saline) 97 % of control; (dose: 2.5 mg/kg/injection, schedule: Q01DX009 (ip), vehicle: saline) 111 % of control; (dose: 5.0 mg/kg/injection, schedule: Q01DX009 (ip), vehicle: saline) 95 % of control; (dose: 5.0 mg/kg/injection, schedule: Q04DX003 (ip), vehicle: saline) 97 % of control; (dose: 10.0 mg/kg/injection, schedule: Q01DX001 (ip), vehicle: saline) 102 % of control; (dose: 10.0 mg/kg/injection, schedule: Q04DX003 (ip), vehicle: saline) 100 % of control. Further, the T/C (dose: 20.0 mg/kg/injection, schedule: Q01DX001 (ip), vehicle: saline) was 94 % of control.
Turning to `O=P(Nc1ccc(Cl)c(Cl)c1)(N1CCCCC1)N1CCCCC1`, the T/C is 93 % of control (dose: 100.0 mg/kg/injection, schedule: Q04DX003 (ip), vehicle: Klucel (hydroxypropylcellulose) (HPC)); 91 % of control (dose: 200.0 mg/kg/injection, schedule: Q04DX003 (ip), vehicle: Klucel (hydroxypropylcellulose) (HPC)); 93 % of control (dose: 400.0 mg/kg/injection, schedule: Q04DX003 (ip), vehicle: Klucel (hydroxypropylcellulose) (HPC)).
As to `COc1ccc(N=C(CCl)Nc2ccc(OC)cc2)cc1`, the T/C was 94 % of control under setting [8], 88 % of control under setting [9] and 109 % of control under setting [10].
With `CC(/C=N/N/C(N)=N\N)=N\N/C(N)=N/N`, the T/C (dose: 15.0 mg/kg/injection, schedule: Q01DX Z (ip), vehicle: methylcellulose (MC)) was 105 % of control; the T/C (dose: 30.0 mg/kg/injection, schedule: Q01DX Z (ip), vehicle: methylcellulose (MC)) is 103 % of control; the T/C (dose: 60.0 mg/kg/injection, schedule: Q01DX Z (ip), vehicle: methylcellulose (MC)) was 98 % of control; the T/C (dose: 120.0 mg/kg/injection, schedule: Q01DX Z (ip), vehicle: methylcellulose (MC)) was 104 % of control; the T/C (dose: 240.0 mg/kg/injection, schedule: Q01DX Z (ip), vehicle: methylcellulose (MC)) is 98 % of control.
As to `Cc1cc(C)c(SC2c3ccccc3-c3ccccc32)c(C)c1`, the T/C runs as follows: (dose: 75.0 mg/kg/injection, schedule: Q01DX009 (ip), vehicle: saline with Tween-80) 95 % of control; (dose: 150.0 mg/kg/injection, schedule: Q01DX009 (ip), vehicle: saline with Tween-80) 102 % of control; (dose: 300.0 mg/kg/injection, schedule: Q01DX009 (ip), vehicle: saline with Tween-80) 96 % of control.
Consider `NNC(=O)[C@H]1CC[C@H]1C(=O)NN`, for which the T/C reads like this: (dose: 50.0 mg/kg/injection, schedule: Q01DX009 (ip), vehicle: saline) 102 % of control; (dose: 100.0 mg/kg/injection, schedule: Q01DX009 (ip), vehicle: saline) 109 % of control; (dose: 100.0 mg/kg/injection, schedule: Q04DX003 (ip), vehicle: saline) 103 % of control; (dose: 130.0 mg/kg/injection, schedule: Q01DX009 (ip), vehicle: saline) 106 % of control; (dose: 200.0 mg/kg/injection, schedule: Q01DX009 (ip), vehicle: saline) 106 % of control; (dose: 200.0 mg/kg/injection, schedule: Q04DX003 (ip), vehicle: saline) 104 % of control. Also, the T/C (dose: 264.0 mg/kg/injection, schedule: Q04DX003 (ip), vehicle: saline) was 105 % of control and 118 % of control and 91 % of control.
For the compound `Cc1ccc(S(=O)(=O)N(CC(=O)O)c2ccccc2-c2ccccc2)cc1`, the T/C by setting is: under setting [11], 100 % of control; under setting [12], 89 % of control; under setting [13], 100 % of control.
As to `CCOC(=O)C1(C(C)=O)CC=CC1`, the T/C under setting [11] was 100 % of control, the T/C under setting [12] was 104 % of control and the T/C under setting [13] is 100 % of control.
Consider `CN(C)S(=O)(=O)c1ccc(NC(=O)C(Cl)Cl)cc1`, for which the T/C under setting [1] was 100 % of control; the T/C under setting [14] was 100 % of control; the T/C (dose: 100.0 mg/kg/injection, schedule: Q04DX003 (ip), vehicle: other) was 103 % of control; the T/C under setting [2] was 107 % of control; the T/C under setting [15] was 100 % of control; the T/C (dose: 200.0 mg/kg/injection, schedule: Q04DX003 (ip), vehicle: other) was 101 % of control. In addition, the T/C was 100 % of control under setting [3]; 86 % of control under setting [16]; 101 % of control (dose: 400.0 mg/kg/injection, schedule: Q04DX003 (ip), vehicle: other).
With `O=C(O)CCC(=O)Nc1ccccc1C(F)(F)F`, the T/C was 104 % of control under setting [4]; 93 % of control under setting [15]; 98 % of control (dose: 200.0 mg/kg/injection, schedule: Q04DX003 (ip), vehicle: saline with Tween-80); 86 % of control under setting [16]; 90 % of control (dose: 400.0 mg/kg/injection, schedule: Q04DX003 (ip), vehicle: saline with Tween-80).
Turning to `O=C(O)C1CC1c1ccc(Br)cc1` (centres undefined), the T/C was 123 % of control under setting [8] and 100 % of control under setting [9].
With `S=c1[nH]nc2n1NC(c1ccoc1)=NN2`, the T/C is 96 % of control (dose: 25.0 mg/kg/injection, schedule: Q01DX009 (ip), vehicle: saline with Tween-80); 95 % of control (dose: 50.0 mg/kg/injection, schedule: Q01DX009 (ip), vehicle: saline with Tween-80); 97 % of control under setting [14].
For the compound `N#CCC(=O)Nc1ccccc1`, the T/C was 95 % of control under setting [5]; 109 % of control under setting [8]; 103 % of control under setting [6]; 109 % of control under setting [9]; 114 % of control under setting [7]; 106 % of control under setting [10].
In the case of `O=C(c1ccccc1[N+](=O)[O-])C(Br)C(Br)c1ccc2c(c1)OCO2` (centres undefined), the T/C runs as follows: under setting [14], 97 % of control and 87 % of control; under setting [15], 94 % of control and 95 % of control; under setting [16], 97 % of control.
